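Interpolation was linear, between the two tested concentrations surrounding the appropriate level; five concentrations were tested over 48 hours in 96-well plates. GI50: concentration for 50% inhibition of growth.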 The source made the active and inactive calls. Rule as the data show it: active = GI50 up to about 1.1 µM and inactive = higher.
Columns and labels:
Experiment in all cases: NCI tumour cell line growth inhibition, 48 h
[1] = system: HOP-62
[2] = system: MDA-MB-231
[3] = system: KM12
[4] = system: DU-145
[5] = system: HOP-92
[6] = system: MDA-MB-435
[7] = system: TK-10
[8] = system: SF-268
[9] = system: MCF7
[10] = system: BT-549
[11] = system: OVCAR-5
[12] = system: SF-539
[13] = system: NCI-H522
[14] = system: COLO 205
[15] = system: SK-MEL-5
[16] = system: SW-620
[17] = system: SN12C
[18] = system: UACC-62
[19] = system: HL-60

OC(c1ccc2c(c1)OCO2)c1ccc2c(c1)OCO2
GI50 [1]: > 100 µM (inactive) | GI50 [2]: > 100 µM (inactive) | GI50 [3]: > 100 µM (inactive) | GI50 [4]: > 100 µM (inactive) | GI50 [5]: > 100 µM (inactive) | GI50 [6]: > 100 µM (inactive) | GI50 [7]: > 100 µM (inactive) | GI50 [8]: 53.6 µM (inactive) | GI50 [9]: > 100 µM (inactive) | GI50 [10]: > 100 µM (inactive) | GI50 [11]: > 100 µM (inactive) | GI50 [12]: > 100 µM (inactive) | GI50 [13]: > 100 µM (inactive) | GI50 [14]: > 100 µM (inactive) | GI50 [15]: > 100 µM (inactive) | GI50 [16]: > 100 µM (inactive) | GI50 [17]: > 100 µM (inactive) | GI50 [18]: > 100 µM (inactive) | GI50 [19]: > 100 µM (inactive)

COc1cc(CNc2ccc3nc4n(c(=O)c3c2)CCCCC4)cc(OC)c1OC
GI50 [1]: 95.1 µM (inactive) | GI50 [2]: 27.3 µM (inactive) | GI50 [3]: 58.6 µM (inactive) | GI50 [4]: 66.7 µM (inactive) | GI50 [5]: 76 µM (inactive) | GI50 [6]: 31.7 µM (inactive) | GI50 [7]: 84.7 µM (inactive) | GI50 [8]: 86.7 µM (inactive) | GI50 [9]: 32.2 µM (inactive) | GI50 [10]: 19.6 µM (inactive) | GI50 [11]: > 100 µM (inactive) | GI50 [12]: > 100 µM (inactive) | GI50 [13]: 39.9 µM (inactive) | GI50 [14]: 35.9 µM (inactive) | GI50 [15]: 22.3 µM (inactive) | GI50 [16]: > 100 µM (inactive) | GI50 [17]: > 100 µM (inactive) | GI50 [18]: 43.6 µM (inactive) | GI50 [19]: > 100 µM (inactive)

Cc1ccc(OCC2OC(n3cnc4c(Br)nc(Br)nc43)CC2Oc2ccc(C)cc2)cc1 (stereo not drawn)
GI50 [1]: 3.61 µM (inactive) | GI50 [2]: 2.12 µM (inactive) | GI50 [3]: 3.08 µM (inactive) | GI50 [4]: 2.38 µM (inactive) | GI50 [5]: 2.41 µM (inactive) | GI50 [6]: 5.85 µM (inactive) | GI50 [7]: 21.8 µM (inactive) | GI50 [8]: 12.9 µM (inactive) | GI50 [9]: 4.32 µM (inactive) | GI50 [10]: 18.6 µM (inactive) | GI50 [11]: 12.3 µM (inactive) | GI50 [12]: 2.19 µM (inactive) | GI50 [13]: 1.86 µM (inactive) | GI50 [14]: 4.06 µM (inactive) | GI50 [15]: 6.31 µM (inactive) | GI50 [16]: 2.56 µM (inactive) | GI50 [17]: 3.37 µM (inactive) | GI50 [18]: 7.35 µM (inactive) | GI50 [19]: 1.91 µM (inactive)

CCOC(=O)CC[C@H](NC(=O)[C@H](N)Cc1ccc(N(CCCl)CCCl)cc1)C(=O)OCC
GI50 [1]: 21.6 µM (inactive) | GI50 [2]: 29.4 µM (inactive) | GI50 [3]: 16 µM (inactive) | GI50 [4]: 13.2 µM (inactive) | GI50 [5]: 3.64 µM (inactive) | GI50 [6]: 26.9 µM (inactive) | GI50 [7]: > 54.5 µM (inactive) | GI50 [8]: 1.43 µM (inactive) | GI50 [9]: 20.6 µM (inactive) | GI50 [10]: 26.2 µM (inactive) | GI50 [11]: 26.4 µM (inactive) | GI50 [12]: 9.66 µM (inactive) | GI50 [13]: 4.53 µM (inactive) | GI50 [14]: 20.7 µM (inactive) | GI50 [15]: 10.4 µM (inactive) | GI50 [16]: 18 µM (inactive) | GI50 [17]: 14.2 µM (inactive) | GI50 [18]: 2.68 µM (inactive) | GI50 [19]: 5.3 µM (inactive)

CN(C)/C=C/c1ccnc2c1C(=O)c1ccccc1C2=O
GI50 [1]: 15.6 µM (inactive) | GI50 [2]: 30.6 µM (inactive) | GI50 [3]: 9.66 µM (inactive) | GI50 [4]: 1.73 µM (inactive) | GI50 [5]: 31.8 µM (inactive) | GI50 [6]: 1.35 µM (inactive) | GI50 [7]: > 92.7 µM (inactive) | GI50 [8]: 13.6 µM (inactive) | GI50 [9]: 4.46 µM (inactive) | GI50 [10]: 3.59 µM (inactive) | GI50 [11]: 17.3 µM (inactive) | GI50 [12]: 12.9 µM (inactive) | GI50 [13]: 8.51 µM (inactive) | GI50 [14]: 24.9 µM (inactive) | GI50 [15]: 1.28 µM (inactive) | GI50 [16]: 3.21 µM (inactive) | GI50 [17]: 5.2 µM (inactive) | GI50 [18]: 1.38 µM (inactive) | GI50 [19]: 10.9 µM (inactive)

O=C1/C(=C/c2ccc([N+](=O)[O-])cc2)Sc2scc(-c3cccc([N+](=O)[O-])c3)[n+]21
GI50 [1]: 15.5 µM (inactive) | GI50 [2]: 4.91 µM (inactive) | GI50 [3]: 10.8 µM (inactive) | GI50 [4]: 10.6 µM (inactive) | GI50 [5]: 3.66 µM (inactive) | GI50 [6]: 5.46 µM (inactive) | GI50 [7]: 5.18 µM (inactive) | GI50 [8]: 2.15 µM (inactive) | GI50 [9]: 4.09 µM (inactive) | GI50 [10]: 5.36 µM (inactive) | GI50 [11]: 8.89 µM (inactive) | GI50 [12]: 2.37 µM (inactive) | GI50 [13]: 0.973 µM (active) | GI50 [14]: 1.85 µM (inactive) | GI50 [15]: 5.86 µM (inactive) | GI50 [16]: 1.69 µM (inactive) | GI50 [17]: 4.1 µM (inactive) | GI50 [18]: 8.79 µM (inactive) | GI50 [19]: 0.331 µM (active)

O=C(O)c1nc2cc(Cl)ccc2[nH]c1=O
GI50 [1]: > 100 µM (inactive) | GI50 [2]: > 100 µM (inactive) | GI50 [3]: > 100 µM (inactive) | GI50 [4]: > 100 µM (inactive) | GI50 [5]: > 100 µM (inactive) | GI50 [6]: > 100 µM (inactive) | GI50 [7]: > 100 µM (inactive) | GI50 [8]: > 100 µM (inactive) | GI50 [9]: > 100 µM (inactive) | GI50 [10]: > 100 µM (inactive) | GI50 [11]: > 100 µM (inactive) | GI50 [12]: > 100 µM (inactive) | GI50 [13]: > 100 µM (inactive) | GI50 [14]: > 100 µM (inactive) | GI50 [15]: > 100 µM (inactive) | GI50 [16]: > 100 µM (inactive) | GI50 [17]: > 100 µM (inactive) | GI50 [18]: > 100 µM (inactive) | GI50 [19]: > 100 µM (inactive)
